Read-outs that look alike come from different tables or passages of the source.
Experiments:
GST-tagged PTPN2 protein = GST-tagged PTPN2 protein (Homo sapiens (Human), UniProt P17706); assay: Primary assay of PTPN2 enzymatic activity inhibition (DiFMUP fluorescence); assay type: biochemical; details: PTPN2 0.004 ng/μL, DiFUMP substrate 2 μM, 60 min at rt
Procedure: Compound activity was determined using GST-tagged PTPN2 protein (Cat #31592, ActiveMotif) (SEQ ID NO: 1) in an in vitro enzymatic reaction. The enzymatic reaction was carried out in assay buffer (50 mM HEPES Na salt pH 7.2-7.4, 2 mM EDTA, 100 mM NaCl, 52 ng/μL BSA, and 6 mM DTT). The compounds were dispensed on a 384 well Diamond Well Plate (Axigen, Cat #P-384-120SQ-C-S) using the Biomek FX liquid handling system at 100× solutions of compounds in DMSO. 2×PTPN2 (final concentration 0.004 ng/μL) was prepared in 1× Assay buffer and 25 μL of mixture per well was added into Reaction plate (Optiplate, black, Perkin Elmer, Cat #6007270). Add 25 μL of 1× buffer to Ctrl- (Substrate w/o PTPN2) wells followed by centrifugation at 100 g for 1 min. Next step the Compounds were added to Reaction plate using Biomek station via following steps: 3 μl of 100× compounds (in DMSO) were mixed with 27 μL of Assay Buffer, then 5 μL of this mixture was added to Reaction plate with 25 μL of PTPN2 Mix. Plates were centrifuged for 1 min at 100 g and incubated for another 10 min at rt. Finally, 20 μL of 2.5× Substrate (DiFUMP, Invitrogen™ Cat #D6567) mix was added into appropriate wells of Reaction plate to the final concentration of 2 μM, plate was centrifuged at 100 g for 1 min followed by incubation at rt for 60 min, and the Fluorescence Intensity was measured using a Microplate Reader (ClarioStar Plus, excitation 360 nm, emission 450 nm). The % inhibition was then used to calculate the Ki values. The Ki values are shown in Table A, wherein “A” corresponds to Ki<1.0 nm, “B” corresponds to 1.0 nm≤Ki<5.0 nm, “C” corresponds to 5.0 nm≤Ki<10.0 nm, “D” corresponds to 10.0 nm≤Ki<50.0 nm, and “E” corresponds to 50.0 nm≤Ki<100.0 nm, and “F” corresponds to 100.0 nm≤Ki.

[1] = Pharmacokinetic (PK) study in mice, oral bioavailability; assay type: in vivo, Male CD-1 mice; details: 10 mg/kg PO vs 2 mg/kg IV, 10% Ethanol, 30% PEG-400, 60% Phosal-50PG
Procedure: Pharmacokinetic (PK) study in mice: Male CD-1 mice obtained from Charles River GmbH (Sulzfeld, Germany) with body weight ranging between 30 g to 40 g were used in the PK studies. Group of 12 mice were given a 2 mg/kg intravenous bolus (IV) dose of test article as a solution in 20% HP-beta-CD, and another group of 9 mice were given a 10 mg/kg oral (PO) dose of test article as a solution or suspension in [10% ethanol, 30% PEG-400 and 60% Phosal-50PG]. Blood samples (˜200 μL per time point) were collected twice from each animal—from orbital sinus and by cardiopuncture at 0.083, 0.25, 0.5, 1, 2, 4, 8 and 24 hours after IV administration, and at 0.5, 1, 2, 4, 8 and 24 hours after PO administration, 3 mice/time point. Blood samples were collected in tubes with Na-EDTA 0.5 M solution (1:10) and centrifuged for 10 min at 10,000 rpm at 2 to 8° C. to harvest plasma. Plasma samples were stored at −80° C. until LC/MS/MS analysis. Concentration in each plasma sample was determined by a non-validated LC/MS/MS. Data is acquired using multiple reaction monitoring (MRM) with specific transitions monitored for each compound. Pharmacokinetic Analysis: PK parameters were calculated by non-compartmental methods as described in Gibaldi and Perrier (Gibaldi and Perrier, 1982) using Phoenix® WinNonlin® version 6.3 (Certara L.P.). Following PO administration, percent bioavailability (Fabs) was determined by dividing the dose normalized mean area under the plasma concentration-time curve, extrapolated to the last time point (AUClast) obtained following PO dose by the mean dose normalized AUC of the animals dosed by IV injection. All PK parameters are presented as mean±standard deviation (SD). PK studies were conducted in mice for exemplary compounds of Formula (I). The percent bioavailability (Fabs) values determined are listed in Table C for certain compounds, together with the dosage, vehicle and form used in the studies.

[2] = system: B16F10 mouse melanoma cells; assay: Tumor cells B16F10 cellular growth IFNγ-induced inhibition assay (CellTiter-Glo); assay type: cell-based; details: for IC50: B16-F10, 72 h
Procedure: B16F10 mouse melanoma cells (ATCC Cat #CRL-6475) were seeded at a density of 500 cells per well in a 384-well clear bottom plate (Corning Cat #3712, Corning, N.Y.) in 40 μL total volume of DMEM+10% FBS (PanEco Cat #C420, Russia and Sigma Cat #F4135, St. Louis, MO). Cells were allowed to adhere overnight at 37° C., 5% CO2. On the following day, 250× solutions of compounds in DMSO (Sigma Cat #D2650) were prepared into Cmpnds plate (Diamond Well Plate, Axigen, Cat #P-384-120SQ-C-S) (final concentration of 1×) and DMSO only controls were included. Dilution Plate (Diamond Well Plate (Axigen, Cat #P-384-120SQ-C-S) was prepared by adding 49 μL of culture medium per well: half of the plate with culture medium only, half with culture medium+IFNγ (5 ng/ml). A 1 μL aliquot of 250× compounds (Cmpnds plate) was added to 49 μL of culture medium (Dilution plate), then a 10 μL aliquot of the mixture was transferred to Reaction plate with 40 μL of cells followed by centrifugation at 240 g for 1 min. After 3 days of incubation, 10 μL of CellTiter-Glo (Promega) was added to the cells, plates were centrifuged at 240 g for 1 min, and luminescence signal was measured. For each compound, the percent growth inhibition at every compound dose level was calculated relative to the “DMSO/with IFNγ” control and used to determine the IC50.

[3] = B16F10, no IFNγ, 3 days of incubation, read-out: IC50 no IFNγ
[4] = B16F10, with IFNγ, 3 days of incubation, read-out: IC50 + IFNγ
[5] = B16-F10, B16F10, 100 μM compound, no IFNγ, read-out: % Growth Inhibition at 100 μM no IFNγ
[6] = B16-F10, B16F10, 100 μM compound, with IFNγ, read-out: % Growth Inhibition at 100 μM + IFNγ

Sequence of GST-tagged PTPN2 protein (P17706 whole entry): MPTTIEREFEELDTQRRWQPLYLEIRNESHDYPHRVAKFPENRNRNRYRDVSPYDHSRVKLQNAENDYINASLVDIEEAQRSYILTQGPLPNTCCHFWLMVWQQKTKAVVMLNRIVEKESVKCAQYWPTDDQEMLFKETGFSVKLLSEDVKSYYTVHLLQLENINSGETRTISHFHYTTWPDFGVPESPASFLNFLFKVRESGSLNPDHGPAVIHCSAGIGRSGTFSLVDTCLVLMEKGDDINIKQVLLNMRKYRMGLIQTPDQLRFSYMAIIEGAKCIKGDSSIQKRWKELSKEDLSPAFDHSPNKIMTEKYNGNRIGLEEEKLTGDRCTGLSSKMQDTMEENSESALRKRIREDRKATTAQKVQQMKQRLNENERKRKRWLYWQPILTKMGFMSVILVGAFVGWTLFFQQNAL

Compound	Ki (GST-tagged PTPN2 protein) [µM]	Fabs, % ([1]; form Suspension) [%]	IC50 [2, 3] [µM]	IC50 [2, 4] [µM]	inhibition at 100 µM [2, 5] [%]	inhibition at 100 µM [2, 6] [%]	Fabs, % ([1]; form Solution) [%]	IC50 ([2]; read-out: IC50 + IFNγ (μM)) [µM]	IC50 ([2]; read-out: IC50 no IFNγ (μM)) [µM]	inhibition at 100 µM ([2]; B16-F10, read-out: % Growth Inhibition at 100 μM + IFNγ) [%]	inhibition at 100 µM ([2]; B16-F10, read-out: % Growth Inhibition at 100 μM no IFNγ) [%]
Cc1cc(O)nc(Nc2cc(O)c(N3CC(=O)NS3(=O)=O)c(F)c2)n1 [Compound 10, 5-[2-fluoro-6-hydroxy-4-[(4-hydroxy-6-methyl-pyrimidin-2-yl)amino]phenyl]-1,1-dioxo-1,2,5-thiadiazolidin-3-one]	0.001 to 0.005	2.7	> 100	< 5	10 to 50	75 to 100					
COc1cc(O)nc(Nc2cc(O)c(N3CC(=O)NS3(=O)=O)c(F)c2)n1 [Compound 9, 5-[2-fluoro-6-hydroxy-4-[(4-hydroxy-6-methoxy-pyrimidin-2-yl)amino]phenyl]-1,1-dioxo-1,2,5-thiadiazolidin-3-one]	< 0.001		> 100	5 to 10	10 to 50	75 to 100	10.4				
CC1CCN=C(Nc2cc(O)c(N3CC(=O)NS3(=O)=O)c(F)c2)N1 (centres unmarked) [Compound 3, 5-[2-fluoro-6-hydroxy-4-[(6-methyl-1,4,5,6-tetrahydropyrimidin-2-yl)amino]phenyl]-1,1-dioxo-1,2,5-thiadiazolidin-3-one]	0.01 to 0.05		10 to 50	5 to 10	10 to 50	50 to 75	12.5				
CCCc1c(C)nc(Nc2cc(O)c(N3CC(=O)NS3(=O)=O)c(F)c2)nc1O [Compound 21, 5-[2-fluoro-6-hydroxy-4-[(4-hydroxy-6-methyl-5-propyl-pyrimidin-2-yl)amino]phenyl]-1,1-dioxo-1,2,5-thiadiazolidin-3-one]	0.001 to 0.005		> 100	10 to 50	10 to 50	50 to 75					
O=C1CN(c2c(O)cc(Nc3ncc(Cl)cn3)cc2F)S(=O)(=O)N1 [Compound 5, 5-[4-[(5-chloropyrimidin-2-yl)amino]-2-fluoro-6-hydroxy-phenyl]-1,1-dioxo-1,2,5-thiadiazolidin-3-one]	0.05 to 0.1		> 100	> 100	10 to 50	10 to 50					
O=C1CN(c2c(O)cc(Nc3nc(O)c4ccccc4n3)cc2F)S(=O)(=O)N1 [Compound 8, 5-[2-fluoro-6-hydroxy-4-[(4-hydroxyquinazolin-2-yl)amino]phenyl]-1,1-dioxo-1,2,5-thiadiazolidin-3-one]	< 0.001		> 100	10 to 50	10 to 50	50 to 75					
CC(C)Cc1cnc(Nc2cc(O)c(N3CC(=O)NS3(=O)=O)c(F)c2)nc1O [Compound 12, 5-[2-fluoro-6-hydroxy-4-[(4-hydroxy-5-isobutyl-pyrimidin-2-yl)amino]phenyl]-1,1-dioxo-1,2,5-thiadiazolidin-3-one]	< 0.001		> 100	10 to 50	10 to 50	50 to 75					
O=C1CN(c2c(O)cc(Nc3nc(O)c4c(n3)CCCC4)cc2F)S(=O)(=O)N1 [Compound 39, 5-[2-fluoro-6-hydroxy-4-[(4-hydroxy-5,6,7,8-tetrahydroquinazolin-2-yl)amino]phenyl]-1,1-dioxo-1,2,5-thiadiazolidin-3-one]	< 0.001		> 100	10 to 50	10 to 50	50 to 75					
O=C1CN(c2c(O)cc(NC3=NCCCN3)cc2F)S(=O)(=O)N1 [Compound 2, 5-[2-fluoro-6-hydroxy-4-(1,4,5,6-tetrahydropyrimidin-2-ylamino)phenyl]-1,1-dioxo-1,2,5-thiadiazolidin-3-one]	0.005 to 0.01		> 100	< 5	10 to 50	75 to 100					
CC(C)Cc1c(O)nc(Nc2cc(O)c(N3CC(=O)NS3(=O)=O)c(F)c2)nc1Cl [Compound 42, 5-[4-[(4-chloro-6-hydroxy-5-isobutyl-pyrimidin-2-yl)amino]-2-fluoro-6-hydroxy-phenyl]-1,1-dioxo-1,2,5-thiadiazolidin-3-one]	< 0.001		> 100	10 to 50	10 to 50	75 to 100					
Cc1ccnc(Nc2cc(O)c(N3CC(=O)NS3(=O)=O)c(F)c2)n1 [Compound 4, 5-[2-fluoro-6-hydroxy-4-[(4-methylpyrimidin-2-yl)amino]phenyl]-1,1-dioxo-1,2,5-thiadiazolidin-3-one]	≥ 0.1							> 100	> 100	10 to 50	10 to 50
Cc1cnc(Nc2cc(O)c(N3CC(=O)NS3(=O)=O)c(F)c2)nc1O [Compound 6, 5-[2-fluoro-6-hydroxy-4-[(4-hydroxy-5-methyl-pyrimidin-2-yl)amino]phenyl]-1,1-dioxo-1,2,5-thiadiazolidin-3-one]	< 0.001		> 100	50 to 100	< 10	50 to 75					
CC(C)Cc1c(O)nc(Nc2cc(O)c(N3CC(=O)NS3(=O)=O)c(F)c2)nc1O [Compound 13, 5-[4-[(4,6-dihydroxy-5-isobutyl-pyrimidin-2-yl)amino]-2-fluoro-6-hydroxy-phenyl]-1,1-dioxo-1,2,5-thiadiazolidin-3-one]	0.001 to 0.005		> 100	10 to 50	10 to 50	50 to 75					
